Results from patent US20210355104A1, “ADENOSINE RECEPTOR BINDING COMPOUNDS” (Nikang Therapeuticsm Inc., priority 2018, published 2021).
Values joined by “and” are separate entries in the source; they are usually repeats but may differ in a detail not shown here. Equal values may be shown once.

Biological target: Adenosine A2A receptor (Homo sapiens, UniProt P29274)
Experiment: cAMP assay in 293A cells stably expressing the adenosine A2A receptor (CGS21680 stimulation, HTRF)
Assay type: cell-based
Set-up: expressed in transfected cells; host or cells: 293A cells (Invitrogen, Cat# R705-07) infected with A2A-expressing lentivirus (custom packaged by Biosettia), puromycin selected
Settings: 293A-A2AR cells, 0.1% BSA, 1 uM CGS; read-out: cAMP (nM) 0.1% BSA, 1 uM CGS

Chain of Adenosine A2A receptor (P29274 whole entry): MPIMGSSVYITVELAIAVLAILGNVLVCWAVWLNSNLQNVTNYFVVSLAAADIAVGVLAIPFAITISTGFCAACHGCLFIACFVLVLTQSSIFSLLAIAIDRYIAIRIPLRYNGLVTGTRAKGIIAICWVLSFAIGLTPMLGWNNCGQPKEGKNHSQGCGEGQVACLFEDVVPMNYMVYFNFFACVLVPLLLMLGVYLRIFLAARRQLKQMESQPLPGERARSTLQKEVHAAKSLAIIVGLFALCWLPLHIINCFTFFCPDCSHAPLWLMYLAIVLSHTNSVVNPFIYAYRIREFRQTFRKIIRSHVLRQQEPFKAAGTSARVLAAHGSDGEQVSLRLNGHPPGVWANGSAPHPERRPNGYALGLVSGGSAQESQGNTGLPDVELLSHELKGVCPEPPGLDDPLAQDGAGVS

IC50 | Structure (SMILES)
1790 nM | Cc1cc(-c2c(OCc3nc4n(n3)CCCC4)nc(N)nc2-c2ccc(F)cc2)cc(C(F)F)n1 [Example 352, 5-(2-(difluoromethyl)-6-methylpyridin-4-yl)-4-(4-fluorophenyl)-6-((5,6,7,8-tetrahydro-[1,2,4]triazolo[1,5-a]pyridin-2-yl)methoxy)pyrimidin-2-amine]
1420 nM | Cc1cc(-c2c(NCc3cccc(C(C)(C)C#N)n3)nc(N)nc2-c2ccc(F)cc2)cc(C(F)F)n1 [Example 356, 2-(6-(((2-amino-5-(2-(difluoromethyl)-6-methylpyridin-4-yl)-6-(4-fluorophenyl)pyrimidin-4-yl)amino)methyl)pyridin-2-yl)-2-methylpropanenitrile]
3910 nM and 3930 nM | Cc1cc(-c2c(OCc3nc4cc(C(C)(C)O)ccc4n3C)nc(N)nc2-c2ccc(F)cc2)cc(C(F)F)n1 [Example 357, 2-(2-(((2-amino-5-(2-(difluoromethyl)-6-methylpyridin-4-yl)-6-(4-fluorophenyl)pyrimidin-4-yl)oxy)methyl)-1-methyl-1H-benzo[d]imidazol-5-yl)propan-2-ol]
940 nM and 1060 nM | Cc1cc(-c2c(OCc3nc4ccc(C(C)(C)O)cc4n3C)nc(N)nc2-c2ccc(F)cc2)cc(C(F)F)n1 [Example 358, 2-(2-(((2-amino-5-(2-(difluoromethyl)-6-methylpyridin-4-yl)-6-(4-fluorophenyl)pyrimidin-4-yl)oxy)methyl)-1-methyl-1H-benzo[d]imidazol-6-yl)propan-2-ol]
9470 nM and 8890 nM | Cc1cc(-c2c(OCc3nc4c(C(C)(C)C(=O)O)cccc4n3C)nc(N)nc2-c2ccc(F)cc2)cc(C(F)F)n1 [Example 359, 2-(2-(((2-amino-5-(2-(difluoromethyl)-6-methylpyridin-4-yl)-6-(4-fluorophenyl)pyrimidin-4-yl)oxy)methyl)-1-methyl-1H-benzo[d]imidazol-4-yl)-2-methylpropanoic acid]
50 nM and 51 nM and 115 nM | CCC(C)(C#N)c1cccc(COc2nc(N)nc(-c3ccc(F)cc3)c2-c2cc(C)nc(C(F)F)c2)n1 (centres unmarked) [Example 360, 2-(6-(((2-amino-5-(2-(difluoromethyl)-6-methylpyridin-4-yl)-6-(4-fluorophenyl)pyrimidin-4-yl)oxy)methyl)pyridin-2-yl)-2-methylbutanenitrile]
854 nM and 1110 nM | Cc1cc(-c2c(OCc3nc4c(C(C)(C)O)cccc4n3C)nc(N)nc2-c2ccc(F)cc2)cc(C(F)F)n1 [Example 361, 2-(2-(((2-amino-5-(2-(difluoromethyl)-6-methylpyridin-4-yl)-6-(4-fluorophenyl)pyrimidin-4-yl)oxy)methyl)-1-methyl-1H-benzo[d]imidazol-4-yl)propan-2-ol]
85 nM and 158 nM and 45 nM | Cc1cc(-c2c(OCCc3cccc(C(C)(C)C#N)n3)nc(N)nc2-c2ccc(F)cc2)cc(C(F)F)n1 [Example 362, 2-(6-(2-((2-amino-5-(2-(difluoromethyl)-6-methylpyridin-4-yl)-6-(4-fluorophenyl)pyrimidin-4-yl)oxy)ethyl)pyridin-2-yl)-2-methylpropanenitrile]
4800 nM | Cc1cc(-c2c(OCc3cccc(C(C)(C)C(=O)O)c3)nc(N)nc2-c2ccc(F)cc2)cc(C(F)F)n1 [Example 363, 2-(3-(((2-amino-5-(2-(difluoromethyl)-6-methylpyridin-4-yl)-6-(4-fluorophenyl)pyrimidin-4-yl)oxy)methyl)phenyl)-2-methylpropanoic acid]
> 25000 nM | Cc1cc(-c2c(OCc3ccccn3)nc(NCC(=O)O)nc2-c2ccc(F)cc2)cc(C(F)F)n1 [Example 364, (5-(2-(difluoromethyl)-6-methylpyridin-4-yl)-4-(4-fluorophenyl)-6-(pyridin-2-ylmethoxy)pyrimidin-2-yl)glycine]
> 25000 nM | CCn1c(COc2nc(N)nc(-c3ccc(F)cc3)c2-c2cc(C)nc(C(F)F)c2)nc2ccc(C(C)(C)C(=O)O)nc21 [Example 365, 2-(2-(((2-amino-5-(2-(difluoromethyl)-6-methylpyridin-4-yl)-6-(4-fluorophenyl)pyrimidin-4-yl)oxy)methyl)-3-ethyl-3H-imidazo[4,5-b]pyridin-5-yl)-2-methylpropanoic acid]
